Drawing on patent US10800789B2, “Antiviral compounds” (Gilead Pharmasset LLC, priority 2012, dated 2020), this text covers bioavailability and EC50 for six compounds.

A short description of series [1]: IV and PO single dose pharmacokinetic studies in SD rats. It counts as in vivo, male Sprague-Dawley (SD) rats. Particulars: Sprague-Dawley, rat, plasma, male SD rats, PO 2 mg/kg vs IV infusion 1 mg/kg, read-out: Rat % F. How it is done:
IV and PO Single Dose Pharmacokinetic Studies in SD Rats:
The pharmacokinetics of selected compounds was characterized in male Sprague-Dawley (SD) rats (250-300g). In this study, two groups of naïve purebred SD rats (N=3 per group, fasted over night) received the selected compound either as an intravenous (IV) infusion (1 mg/kg over 30 minutes) via the jugular vein or by oral gavage (2 mg/kg). The intravenous (IV) dosing vehicle was 5% ethanol, 35% polyethylene glycol 400 (PEG 400) and 60% water pH 2.0. The oral dosing vehicle was 5% ethanol, 55% PEG 400 and 40% citrate buffer pH 2.2.
Serial blood samples (approximately 0.3 mL each) were collected from jugular vein or other suitable vein at specified time points. For the IV infusion group, the blood samples were collected predose and at 0.25, 0.48, 0.58, 0.75, 1.5, 3, 6, 8, 12 and 24 hours after the start of infusion. For the oral group, the blood samples were collected predose and at 0.25, 0.50, 1, 2, 4, 6, 8, 12 and 24 hours after dosing. The blood samples were collected into VacutainerγM tubes containing EDTA-K3 as the anti-coagulant and were centrifuged at approximately 4° C. to obtain plasma. The plasma samples were stored at −20° C. until analysis by LC/MS/MS.
A bioanalytical method utilizing high performance liquid chromatography coupled to tandem mass spectrometry (LC/MS/MS) was developed for analysis of the selected compound in rat plasma. Detection was performed using selected reaction monitoring (SRM); Ions representing the precursor (M+H)^+ species was selected in quadrupole 1 (Q1) and collided with argon gas in the collision cell (Q2) to generate specific product ion, which was subsequently monitored by quadrupole 3 (Q3). Standard curve and quality control samples were prepared in male rat plasma and processed in the same way as the test samples to generate quantitative data.
Pharmacokinetic parameters were generated using non-compartmental pharmacokinetic analysis (Phoenix WinNonlin, version 6.3). Values below the lower limit of quantification (LLOQ) were assigned a value of zero if predose and treated as missing thereafter. Area under the curve (AUC) was calculated using the linear trapezoidal rule. The oral bioavailability (% F) was determined by comparison of the area under the curve (AUC) of the compound and/or a metabolite generated in plasma following oral administration to that generated following intravenous administration.

Series [2] has as its system NS5A chimeric genotype 1b Con1 replicon with genotype 4a ED43 strain NS5A gene. Kind of series: Replicon assay, genotype 4a NS5A chimera. The note with it: Hepatitis C virus; for EC50: read-out: 4a (s) (nM), genotype 4a NS5A chimeric replicon, stable replicon cells (s); for pEC50: read-out: 4a (s), (s), activity range. In kind it is cell-based, HCV. For orientation: Replicon systems follow genome replication, usually without infectious particles.

Series [3] concerns NS5A chimeric genotype 1b Con1 replicon with genotype 3a S52 strain NS5A gene. Kind of series: Replicon assay, genotype 3a NS5A chimera. The note with it: Hepatitis C virus; for pEC50: activity range. In kind it is cell-based, HCV.
The test system of series [4] is stable HCV 1a RLuc replicon cells (dicistronic genotype 1a H77 replicon). Kind of series: Renilla luciferase HCV replicon reporter assay, genotype 1a. It counts as cell-based. The note with it: Hepatitis C virus, 72 h, stable 1a H77 RLuc replicon cells. In outline:
(§1)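 Antiviral EC50 was determined in HCV replicon cells (stable RLuc lines for 1a H77, 1b Con1, 2a JFH-1 with NS5A L31; J6 NS5A chimera with M31) treated 72 h with compound. Renilla luciferase was then quantified.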

For series [5], the system named is stable HCV 1b RLuc replicon cells (dicistronic genotype 1b Con1 replicon). Kind of series: Renilla luciferase HCV replicon reporter assay, genotype 1b. It counts as cell-based. Particulars: Hepatitis C virus, 72 h, stable 1b Con1 RLuc replicon cells, 72 hours; read-out: 1b. The procedure, abridged: as §1
Series [6] deals with NS5A chimeric genotype 2a JFH-1 replicon with genotype 2a J6 strain NS5A gene (M31 present). Kind of series: Replicon assay, genotype 2a J6 NS5A chimera. The note with it: Hepatitis C virus; for EC50: read-out: 2a J6 (t) (nM), genotype 2a J6 NS5A chimeric replicon (M31), transiently transfected (t) into Huh-Lunet cells; for pEC50: read-out: 2a J6 (t), transiently transfected (t) into Huh-Lunet cells, activity range. In kind it is cell-based, HCV. In outline:
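First, 3-fold serial dilutions of compound went onto replicon cells, DMSO serving as no-inhibition control and ITMN-191 at >100×EC50 as positive control. Next came 72 h incubation, lysis and Renilla luciferase measurement. Finally, EC50 was calculated by non-linear regression; replicons covered genotypes 1a H77, 1b Con1, 2a JFH-1 (L31) and J6-NS5A chimera (M31).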

Series [7] relates to NS5A chimeric genotype 2a JFH-1 replicon with genotype 2b MD2b-1 strain NS5A gene (M31 present). In words: Replicon assay, genotype 2b NS5A chimera. Particulars: Hepatitis C virus; for pEC50: activity range. It counts as cell-based, HCV. In outline: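 Cells carrying the stable or transiently transfected (Huh-Lunet) dicistronic RLuc replicons received 3-fold serial compound dilutions from 10 mM DMSO stocks. After 72 h, cells were lysed and Renilla luciferase read. DMSO served as the no-inhibition control and ITMN-191 above 100×EC50 as the positive control; EC50 by non-linear regression.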

In series [8] the test system is stable HCV 2a JFH-1 Rluc replicon cells (L31 present in NS5A). In words: Renilla luciferase HCV replicon reporter assay, genotype 2a JFH-1. It counts as cell-based. The note with it: Hepatitis C virus; for EC50: read-out: 2a JFH (nM), genotype 2a JFH-1 replicon (L31 in NS5A), stable cells; for pEC50: read-out: 2a JFH, stable 2a JFH-1 Rluc replicon cells, L31 in NS5A, activity range. The procedure, abridged:
as §1

[9] abbreviates: read-out: 3a (s) (nM), genotype 3a NS5A chimeric replicon, stable replicon cells (s).
Setting [10] is: 2BS, read-out: 2b (s), stably replicating replicon cells (s).
[11] abbreviates: read-out: 2b (s) (nM), genotype 2b MD2b-1 NS5A chimeric replicon (M31), stably replicating replicon cells (s).
Setting [12] is: read-out: 2b (t) (nM), genotype 2b MD2b-1 NS5A chimeric replicon (M31), transiently transfected (t).
The mark [13] stands for this setting: read-out: 2b (t), transiently transfected (t) into Huh-Lunet cells.

Each structure is given as a SMILES string. pEC50: −log10 of the molar value. Where two headings read alike, the source gives them in different places.

On to `COC(=O)N[C@H](C(=O)N1C[C@@H](C)C[C@H]1c1nc2ccc3cc4c(cc3c2[nH]1)OCc1cc(-c2cnc([C@@H]3CC[C@H](C)N3C(=O)[C@@H](NC(=O)OC)[C@@H](C)OC)[nH]2)ccc1-4)[C@@H](C)OC` [DY, Methyl [(2S,3R)-3-methoxy-1-{(2S,5S)-2-[9-(2-{(2S,5S)-1-[N-(methoxycarbonyl)-O-methyl-L-threonyl]-5-methylpyrrolidin-2-yl}-1H-imidazol-5-yl)-1,11-dihydroisochromeno[4′,3′:6,7]naphtho[1,2-d]imidazol-2-yl]-4-methylpyrrolidin-1-yl}-1-oxobutan-2-yl]carbamate], for which the bioavailability in series [1] came to 8.3%. Further, the EC50 in series [2] is 0.035 nM; in series [3] (setting [9]), 0.13 nM; in series [6], 0.047 nM; in series [7] (setting [11]) it was 0.199 nM; in series [7] (setting [12]), 0.083 nM; in series [8] it was 0.028 nM. In addition, the pEC50 in series [2] was greater than 10.00; in series [3] (read-out: 3a (s), (s)), 9.00 to 10.00; in series [4], 10.36; in series [4] (activity range), greater than 10.00; in series [5] it was 10.19; in series [6], greater than 10.00. For the same compound, the pEC50 was 9.00 to 10.00 in series [7] (setting [10]), greater than 10.00 in series [7] (setting [13]) and greater than 10.00 in series [8].
For the compound `COC(=O)NC(C(=O)N1[C@@H](C)CC[C@H]1c1nc2ccc3cc4c(cc3c2[nH]1)OCc1cc(-c2cnc([C@@H]3CC[C@H](C)N3C(=O)[C@@H](NC(=O)OC)C3CCOCC3)[nH]2)ccc1-4)C(C)C` (stereo partly drawn) [EA, Methyl(1-{(2S,5S)-2-[9-(2-{(2S,5S)-1-[(2S)-2-[(methoxycarbonyl)amino]-2-(tetra hydro-2H-pyran-4-yl)acetyl]-5-methylpyrrolidin-2-yl}-1H-imidazol-5-yl)-1,11-dihydroisochromeno[4′,3′:6,7]naphtho[1,2-d]imidazol-2-yl]-5-methylpyrrolidin-1-yl}-3-methyl-1-oxobutan-2-yl)carbamate], the bioavailability in series [1] amounted to 10.2%. In addition, the EC50 was 0.019 nM in series [2]; 0.035 nM in series [3] (setting [9]); 0.035 nM in series [6]; 0.088 nM in series [7] (setting [11]); 0.037 nM in series [7] (setting [12]); 0.015 nM in series [8]. For the same compound, the pEC50 in series [2] was greater than 10.00; in series [3] (read-out: 3a (s), (s)) it was greater than 10.00; in series [4] it was 10.74; in series [4] (activity range), greater than 10.00; in series [5] it was 10.55; in series [6] it was greater than 10.00. The pEC50 in series [7] (setting [10]), in series [7] (setting [13]) and in series [8] was greater than 10.00 in each case.
Consider `COC(=O)N[C@H](C(=O)N1[C@@H](C)CC[C@H]1c1ncc(-c2ccc3c(c2)COc2cc4c(ccc5nc([C@@H]6C[C@H](C)CN6C(=O)[C@@H](NC(=O)OC)C6CCOCC6)[nH]c54)cc2-3)[nH]1)C(C)C` [EI, methyl[(1 S)-2-[(2S,4S)-2-(9-{2-[(2S,5S)-1-{(2S)-2-[(methoxycarbonyl)amino]-3-methylbutanoyl}-5-methylpyrrolidin-2-yl]-1H-imidazol-5-yl}-1,11 dihydroisochromeno[4′,3′:6,7]naphtho[1,2-d]imidazol-2-yl)-4-methylpyrrolidin-1-yl]-2-oxo-1-(tetra hydro-2H-pyran-4-yl)ethyl]carbamate], for which, in series [1], the bioavailability stood at 4.4%. Further, the EC50 was 0.02 nM in series [2]; 0.077 nM in series [3] (setting [9]); 0.074 nM in series [3] (read-out: 3a (t) (nM), genotype 3a NS5A chimeric replicon, transiently transfected (t)); 0.022 nM in series [6]; 0.048 nM in series [7] (setting [11]); 0.033 nM in series [8]. In addition, the pEC50 was greater than 10.00 in series [2]; greater than 10.00 in series [3] (read-out: 3a (s), (s)); greater than 10.00 in series [3] (read-out: 3a (t), transiently transfected (t) into Huh-Lunet cells); 10.60 in series [4]; greater than 10.00 in series [4] (activity range); 10.32 in series [5]. Besides, the pEC50 in series [6], in series [7] (setting [10]) and in series [8] was greater than 10.00 throughout.
Regarding `COC(=O)N[C@H](C(=O)N1C[C@@H](C)C[C@H]1c1nc2ccc3cc4c(cc3c2[nH]1)OCc1cc(-c2cnc([C@@H]3CC[C@H](C)N3C(=O)[C@@H](NC(=O)OC)[C@@H](C)OC)[nH]2)ccc1-4)C(C)C` [GA], the bioavailability in series [1] came out at 3.2%. For the same compound, the EC50 in series [2] amounted to 0.016 nM; in series [3] (setting [9]), 0.063 nM; in series [6] it was 0.064 nM; in series [7] (setting [11]), 0.245 nM; in series [8], 0.018 nM. Further, the pEC50 in series [2] was greater than 10.00; in series [3] (read-out: 3a (s), (s)), greater than 10.00; in series [4] it was 10.72; in series [4] (activity range), greater than 10.00; in series [5] it was 10.46; in series [6], greater than 10.00. Also, the values for the pEC50 in series [7] (setting [10]) and in series [8] were 9.00 to 10.00 and greater than 10.00, respectively.
On to `CC[C@H]1CC[C@@H](c2ncc(-c3ccc4c(c3)COc3cc5c(ccc6nc([C@@H]7CC[C@H](CC)N7C(=O)[C@@H](NC(=O)OC)C7CCOCC7)[nH]c65)cc3-4)[nH]2)N1C(=O)[C@@H](NC(=O)OC)C1CCOCC1` [IE], for which, in series [1], the bioavailability worked out at 2.2%. In addition, the EC50 in series [2] amounted to 0.039 nM; in series [3] (setting [9]), 0.198 nM; in series [6] it was 0.042 nM; in series [7] (setting [11]) it was 0.065 nM; in series [8], 0.035 nM. Further, the pEC50 in series [2] was greater than 10.00; in series [3] (read-out: 3a (s), (s)), 9.00 to 10.00; in series [4], 10.38; in series [4] (activity range), greater than 10.00; in series [5], 10.27; in series [6] it was greater than 10.00. Also, the pEC50 in series [7] (setting [10]) and in series [8] was greater than 10.00 each time.
As to `CC[C@H]1CC[C@@H](c2ncc(-c3ccc4c(c3)COc3cc5c(ccc6nc([C@@H]7CC[C@H](CC)N7C(=O)[C@@H](NC(=O)OC)C7CCOCC7)[nH]c65)cc3-4)[nH]2)N1C(=O)[C@@H](NC(=O)OC)C(C)C` [IG], in series [1], the bioavailability amounted to 28.2%. For the same compound, the EC50 in series [2] came to 0.025 nM; in series [3] (setting [9]), 0.787 nM; in series [6], 0.122 nM; in series [7] (setting [11]) it was 0.25 nM; in series [8], 0.034 nM. The pEC50 is greater than 10.00 in series [2]; 9.00 to 10.00 in series [3] (read-out: 3a (s), (s)); 10.57 in series [4]; greater than 10.00 in series [4] (activity range); 10.46 in series [5]; 9.00 to 10.00 in series [6]. In addition, the figures for the pEC50 in series [7] (setting [10]) and in series [8] were 9.00 to 10.00 and greater than 10.00, respectively.
